Measurements as given in patent publication EP2573105B1, “p16INK4a derived peptides for prophylaxis and therapy of HPV-associated tumors and other p16INK4a expressing tumors” (Ruprecht-Karls-Universität Heidelberg, priority 2011, dated 2013).

Tested on: Peripheral blood mononuclear cells (PBMCs)
Assay: BrdU proliferation assay of PBMCs incubated with p16INK4a peptides
Type: cell-based, human
Conditions: first reacting patient; PBMCs from women with CIN2/3
Procedure: Peripheral blood mononuclear cells (PBMCs) from 13 women with p16^INK4a-expressing high grade cervical dysplasia (CIN2/3) were incubated with p16^INK4a peptides (Table 1) to determine the proliferative capacity of the immune cells by applying a BrdU assay as a global measure for lymphoproliferative potential after challenge with the p16^INK4a peptides. The BrdU-assay is a colorimetric immunoassay applied for the quantification of cell proliferation based on the measurement of the thymidine analogue 5-bromo-2'-deoxyuridine incorporation during DNA synthesis. PBMCs in IMDM medium supplemented with 10% human serum were seeded in a 96-well-microtiter-plate (flat bottom) at a density of 150.000 cells/50µl/well. Cells in each 4 replicate wells were incubated in the presence of the seven p16INK4a peptides (Table 1), tetanus toxoid (20 ng/ml, Calbiochem, La Jolla, CA) and mitogen PHA-L (5 µg/ml, Roche, Mannheim, Germany) as positive controls and no antigen as negative control for 6 days at 37°C, 5% CO2. […] The enzyme reaction was stopped by adding 25 µl/well 1N H2SO4 and optical density (OD) was measured at 450 nm (reference wavelength 620 nm). […]

GHRDVARYLRAAAGGTRGSNHARIDAAEGPSDIPD [p16INK4a_123-156]
response (proliferation, BrdU assay): showed response
